Patent publication EP4782453A1 (Beyang Therapeutics Co., Ltd., priority 2023, dated 2025)

Molecular target: T1, Menin-MLL (Homo sapiens, UniProt O00255)
T1 construct: His-Menin (M1-L615 end); purchased BIORTUS BP9210
T1 sequence (O00255 1-615 isoform O00255-1): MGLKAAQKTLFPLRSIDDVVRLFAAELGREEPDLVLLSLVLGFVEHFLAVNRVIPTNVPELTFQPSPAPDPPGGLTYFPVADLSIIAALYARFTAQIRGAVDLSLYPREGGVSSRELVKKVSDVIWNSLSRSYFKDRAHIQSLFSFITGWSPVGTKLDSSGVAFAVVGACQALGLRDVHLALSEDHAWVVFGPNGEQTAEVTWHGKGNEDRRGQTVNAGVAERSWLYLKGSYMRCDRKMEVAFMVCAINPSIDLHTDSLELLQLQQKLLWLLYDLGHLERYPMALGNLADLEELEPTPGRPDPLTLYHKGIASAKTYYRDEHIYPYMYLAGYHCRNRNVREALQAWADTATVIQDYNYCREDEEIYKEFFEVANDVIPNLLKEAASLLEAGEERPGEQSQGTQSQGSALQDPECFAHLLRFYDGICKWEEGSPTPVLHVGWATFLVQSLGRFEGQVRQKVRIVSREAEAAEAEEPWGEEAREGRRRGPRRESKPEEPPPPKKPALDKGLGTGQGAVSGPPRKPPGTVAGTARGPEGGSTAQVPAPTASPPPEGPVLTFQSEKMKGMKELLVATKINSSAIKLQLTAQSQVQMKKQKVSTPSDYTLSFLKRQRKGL
Test: Inhibitory activity against Menin-MLL binding (fluorescence polarization)
Settings: fluorescence polarization; 150 nM His-Menin, 15 nM FITC-MLL; 25°C for 60 min; read-out: Menin-MLL IC50
Outline: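 His-Menin (M1-L615, 150 nM) preincubated with compound 15 min at 25 °C in HEPES pH 7.5, 50 mM NaCl, 1 mM DTT, 0.01% BSA, then 15 nM FITC-MLL4-43 peptide added for 60 min at 25 °C. Fluorescence polarization read; IC50 from 4-parameter logistic fit, duplicates.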

In the case of `CCN(C(=O)c1cc(F)ccc1-c1cc(C2CN(C(CO)C(C)C)C2)cn2c(C)ncc12)C(C)C` (centres unmarked) [Example 421, N-ethyl-5-fluoro-2-{6-[1-(1-hydroxyl-3-methylbutan-2-yl)azacyclobutan-3-yl]-3-methylimidazo[1,5-a]pyridin-8-yl}-N-(isopropyl)benzamide], the IC50 is reported as 14 nM.

In the case of `CCN(C(=O)c1cc(F)ccc1-c1cc(C2CN([C@H](CN3CCN(CCOC)CC3)C(C)C)C2)cc2c1cnn2C)C(C)C` [Example 422], the IC50 is reported as 29 nM.

`CCN(C(=O)c1cc(F)ccc1-c1cc(C2CN([C@H](CN3CCN(CCF)CC3)C(C)C)C2)cc2c1cnn2C)C(C)C` [Example 424, N-ethyl-5-fluoro-2-(6-{1-[(2S)-1-[4-(2-fluoroethyl)piperazin-1-yl]-3-methylbutan-2-yl]azacyclobutan-3-yl}-1-methyl-1H-indazol-4-yl)-N-(isopropyl)benzamide] showed an IC50 of 78 nM.

`CCN(C(=O)c1cc(F)ccc1-c1cc(C2CN(C(CCC(=O)O)C(C)C)C2)cn2c(C)ncc12)C(C)C` (centres unmarked) [Example 427, 4-[3-(8-{2-[ethyl(isopropyl)aminoformyl]-4-fluorophenyl}-3-methylimidazo[1,5-a]pyridin-6-yl)azacyclobutan-1-yl]-5-methylhexanoic acid] gave an IC50 of 120 nM.

`CCN(C(=O)c1cc(F)ccc1-c1cc(C2CN(C(C[C@H](O)CO)C(C)C)C2)cn2c(C)ncc12)C(C)C` (stereo partly drawn) [Example 437, 2-(6-{1-[(5S)-5,6-dihydroxyl-2-methylhexan-3-yl]azacyclobutan-3-yl}-3-methylimidazo[1,5-a]pyridin-8-yl)-N-ethyl-5-fluoro-N-(isopropyl)benzamide] gave an IC50 of 12 nM.

`CCN(C(=O)c1cc(F)ccc1-c1cc(C2CN(C(C[C@@H](O)CO)C(C)C)C2)cn2c(C)ncc12)C(C)C` (stereo partly drawn) [Example 438, 2-(6-{1-[(5R)-5,6-dihydroxyl-2-methylhexan-3-yl]azacyclobutan-3-yl}-3-methylimidazo[1,5-a]pyridin-8-yl)-N-ethyl-5-fluoro-N-(isopropyl)benzamide] was tested, and the IC50 was 14 nM.

`CCN(C(=O)c1cc(F)ccc1-c1cc(C2CN(C(CN3CCOCC3)C(C)C)C2)cn2c(C)ncc12)C(C)C` (centres unmarked) [Example 439, N-ethyl-5-fluoro-2-(3-methyl-6-{1-[3-methyl-1-(morpholin-4-yl)butan-2-yl]azacyclobutan-3-yl}imidazo[1,5-a]pyridin-8-yl)-N-(isopropyl)benzamide] gave an IC50 of 21 nM.

For `CCN(C(=O)c1cc(F)ccc1-c1cc(C2CN([C@@H](CN3CCS(=O)(=O)CC3)C(C)C)C2)cn2c(C)ncc12)C(C)C` [Example 441-2, 2-(6-{1-[(2R)-1-(1,1-dioxo-thiomorpholin-4-yl)-3-methylbutan-2-yl]azacyclobutan-3-yl}-3-methylimidazo[1,5-a]pyridin-8-yl)-N-ethyl-5-fluoro-N-(isopropyl)benzamide], the IC50 was 110 nM.

`CCN(C(=O)c1cc(F)ccc1-c1cc(C2CN([C@H](CN3CCN(C(C)=O)CC3)C(C)C)C2)cn2c(C)ncc12)C(C)C` [Example 443] gave an IC50 of 19.5 nM.

Work on `CCN(C(=O)c1cc(F)ccc1-c1cc(C2CN(C(CN3CCC(OC)CC3)C(C)C)C2)cn2c(C)ncc12)C(C)C` (centres unmarked) [Example 444] yielded an IC50 of 45 nM.

For `CCN(C(=O)c1cc(F)ccc1-c1cc(C2CN([C@H](CN3C[C@@H](O)[C@H](O)C3)C(C)C)C2)cn2c(C)ncc12)C(C)C` [Example 446-1, 2-(6-{1-[(2S)-1-[(3R,4R)-3,4-dihydroxylpyrrolidin-1-yl]-3-methylbutan-2-yl]azacyclobutan-3-yl}-3-methylimidazo[1,5-a]pyridin-8-yl)-N-ethyl-5-fluoro-N-(isopropyl)benzamide], the IC50 was 7.3 nM.

With `CCN(C(=O)c1cc(F)ccc1-c1cc(C2CN([C@@H](CN3C[C@@H](O)[C@H](O)C3)C(C)C)C2)cn2c(C)ncc12)C(C)C` [Example 446-2, 2-(6-{1-[(2R)-1-[(3R,4R)-3,4-dihydroxylpyrrolidin-1-yl]-3-methylbutan-2-yl]azacyclobutan-3-yl}-3-methylimidazo[1,5-a]pyridin-8-yl)-N-ethyl-5-fluoro-N-(isopropyl)benzamide] the IC50 was 44 nM.

For `CCN(C(=O)c1cc(F)ccc1-c1cc(C2CN(C(CCC3(O)COC3)C(C)C)C2)cn2c(C)ncc12)C(C)C` (centres unmarked) [Example 447, N-ethyl-5-fluoro-2-(6-{1-[1-(3-hydroxyloxacyclobutan-3-yl)-4-methylpentan-3-yl]azacyclobut-3-yl}-3-methylimidazo[1,5-a]pyridin-8-yl)-N-(isopropyl)benzamide], the IC50 was 25 nM.

`Cc1ncc2c(-c3ccc(F)cc3C(=O)N(C)C(C)C)cc(C3CN([C@@H](CCCN4CCN(CCO)CC4)C(C)C)C3)cn12` [Example 448-1] gave an IC50 of 120 nM.

With `CCN(C(=O)c1cc(F)ccc1-c1cc(C2CN([C@@H](CC[C@@H]3COCCN3)C(C)C)C2)cn2c(C)ncc12)C(C)C` [Example 449-2, N-ethyl-5-fluoro-2-(3-methyl-6-{1-[(3S)-4-methyl-1-[(3R)-morpholin-3-yl]pentan-3-yl]azacyclobutan-3-yl}imidazo[1,5-a]pyridin-8-yl)-N-(isopropyl)benzamide] the IC50 was 34 nM.

With `CCN(C(=O)c1cc(F)ccc1-c1cc(C2CN([C@H](CCCN3CCN(C(=O)OC(C)(C)C)CC3)C(C)C)C2)cn2c(C)ncc12)C(C)C` [Example 454-1, 4-[(4R)-4-[3-(8-{2-[ethyl(isopropyl)aminoformyl]-4-fluorophenyl}-3-methylimidazo[1,5-a]pyridin-6-yl)azacyclobutan-1-yl]-5-methylhexyl]piperazin-1-tert-butyl carboxylate] the IC50 was 7.7 nM.

Compound `CCN(C(=O)c1cc(F)ccc1-c1cc(C2CN([C@@H](CCCN3CCN(C(=O)OC(C)(C)C)CC3)C(C)C)C2)cn2c(C)ncc12)C(C)C` [Example 454-2, 4-[(4S)-4-[3-(8-{2-[ethyl(isopropyl)aminoformyl]-4-fluorophenyl}-3-methylimidazo[1,5-a]pyridin-6-yl)azacyclobutan-1-yl]-5-methylhexyl]piperazin-1-tert-butyl carboxylate] has an IC50 of 80 nM.

Compound `CCN(C(=O)c1cc(F)ccc1-c1cc(C2CN(C(CCN3CCN(CCO)CC3)C(C)C)C2)cn2c(C)ncc12)C(C)C` (centres unmarked) [Example 456, N-ethyl-5-fluoro-2-[6-(1-{1-[4-(2-hydroxyethyl)piperazin-1-yl]-4-methylpentan-3-yl}azacyclobutan-3-yl)-3-methylimidazo[1,5-a]pyridin-8-yl]-N-(isopropyl)benzamide] has an IC50 of 14 nM.

Compound `CCN(C(=O)c1cc(F)ccc1-c1cc(C2CN([C@@H](CC[C@H]3COCCN3)C(C)C)C2)cn2c(C)ncc12)C(C)C` [Example 457-1, N-ethyl-5-fluoro-2-(3-methyl-6-{1-[(3S)-4-methyl-1-[(3S)-morpholin-3-yl]pentan-3-yl]azacyclobutan-3-yl}imidazo[1,5-a]pyridin-8-yl)-N-(isopropyl)benzamide] has an IC50 of 40 nM.

Compound `Cc1ncc2c(-c3ccc(F)cc3C(=O)N(CC(F)F)C(C)C)cc(C3CN([C@@H](CCCN4CCN(CCO)CC4)C(C)C)C3)cn12` [Example 459-2, N-(2,2-difluoroethyl)-5-fluoro-2-(6-{1-[(3S)-6-[4-(2-hydroxylethyl)piperazin-1-yl]-2-methylhexan-3-yl]azacyclobutan-3-yl}-3-methyl-imidazo[1,5-a]pyridin-8-yl)-N-(isopropyl)benzamide] has an IC50 of 40 nM.
